Activity calls are given as the source filed them.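 Rule for the calls: active = visibly stopped the calcineurin reporter band on a blot from moving down to a smaller size, judged by eye; inactive = reporter band movement visibly unaltered.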
system: calcineurin (human, NFAT-based CaNAR1 reporter dephosphorylation); assay: inhibitors of CaNAR1 reporter dephosphorylation – TALL-104 cells, western blot, CherryPick01, mechanism study for lytic granule exocytosis inhibitor project (AID 720669); conditions: CaNAR1 dephosphorylation shift, at 12 µM, stronger effect = higher value

Structure (SMILES)	inhibition
CC1COCC(C)N1C1=C(Cl)C(=O)c2ccccc2C1=O (configuration not stated)	100%
CCCCC[C@@H](C)N1C[C@@H](COCc2ccccc2)Oc2cc(N3CC[C@H](N(C)C)C3)ccc2S1(=O)=O	0% (inactive)
COC(=O)c1c(NC(=O)c2nc3ccccc3s2)sc2c1CC(C)(C)NC2(C)C	0% (inactive)
O=c1c2ccccc2sn1-c1ccccc1	0% (inactive)
O=CNc1cc(-c2ccsc2)cn2c(-c3ccccc3)cnc12	0% (inactive)
O=C(CN1C(=O)/C(=C\c2cccc(Br)c2)Oc2ccccc21)NCCCN1CCOCC1	0% (inactive)
O=c1c2ccc(F)cc2sn1-c1ccccc1	0% (inactive)
CCN(CC)CCCNc1ccc(-c2nnc(-c3ccc(OCC(C)C)cc3)o2)cn1	0% (inactive)
CCCCC[C@@H](C)N1C[C@@H](COCc2ccccc2)Oc2cc(N3CC[C@@H](N(C)C)C3)ccc2S1(=O)=O	0% (inactive)
CC1=NOC(=O)/C1=C/c1ccc(-c2ccc(Cl)cc2)o1	0% (inactive)
O=C(Cn1sc2ccccc2c1=O)NC12CC3CC(CC(C3)C1)C2	0% (inactive)
CCCCC[C@@H](C)N1C[C@H](COCc2ccccc2)Oc2cc(N3CC[C@@H](N(C)C)C3)ccc2S1(=O)=O	0% (inactive)
O=C(Cn1sc2ccccc2c1=O)Nc1ccc(F)cc1	0% (inactive)
CC(C)(c1ccccc1)c1ccc(OCC(O)CNC2CCN(Cc3ccccc3)CC2)cc1 (configuration not stated)	0% (inactive)

The remaining lines, values ahead:

inhibition	Structure (SMILES)
0% (inactive)	Cc1ccc(S(=O)(=O)n2ccc3c(OCCOCCNCc4ccc(F)cc4)cccc32)cc1
0% (inactive)	COc1ccccc1CNc1nc(NCc2ccc(C(C)C)cc2)c2sccc2n1
0% (inactive)	Cc1ccc(Nc2nc(NCc3ccco3)c3ccccc3n2)cc1
0% (inactive)	COc1ccc(-c2cc(NC=O)c3ncc(-c4ccccc4)n3c2)cc1OC
0% (inactive)	COc1ccc(-n2sc3ccccc3c2=O)cc1
0% (inactive)	COc1ccc(N2C(=O)CC(Sc3nnc(-c4ccccc4)o3)C2=O)cc1 (configuration not stated)
0% (inactive)	CN(C)CCNC(=O)c1ccc(-c2cn3c(-c4ccc(Oc5ccccc5)cc4)cnc3cn2)cc1
0% (inactive)	COc1ccc(-c2cc(NC=O)c3ncc(-c4cccc(OC)c4)n3c2)cc1

Reference: PubChem BioAssay AID720669 (NMMLSC, 2013)
